Measurements as given in ChEMBL document CHEMBL1201862, “PubChem BioAssay data set” (2004).
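Protocol summary: plate cells (96-well), add compound at 5 concentrations, incubate 48 h, interpolate endpoints linearly. GI50 is the concentration that inhibits growth by half.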 Activity calls are given as the source filed them. No stated cut-off is given here; in the data, active = GI50 up to about 1.1 µM and inactive = higher.

Legend:
Experiment in all cases: NCI anticancer screen, dose series, 48 h
[1] = system: 786-0
[2] = system: A498
[3] = system: A549
[4] = system: ACHN
[5] = system: CAKI-1
[6] = system: CCRF-CEM
[7] = system: COLO 205
[8] = system: DLD-1
[9] = system: DMS-114
[10] = system: DMS-273
[11] = system: EKVX
[12] = system: HCC 2998
[13] = system: HCT-116
[14] = system: HCT-15
[15] = system: HL-60
[16] = system: HOP-18
[17] = system: HOP-62
[18] = system: HOP-92
[19] = system: HT-29
[20] = system: IGROV-1
[21] = system: K562
[22] = system: KM-20L2
[23] = system: KM12
[24] = system: LOX IMVI
[25] = system: LXFL 529
[26] = system: M14
[27] = system: M19-MEL
[28] = system: MOLT-4
[29] = system: Malme-3M
[30] = system: NCI-H226
[31] = system: NCI-H23
[32] = system: NCI-H460
[33] = system: NCI-H522
[34] = system: OVCAR-3
[35] = system: OVCAR-4
[36] = system: OVCAR-5
[37] = system: OVCAR-8
[38] = system: RXF 393
[39] = system: SF-268
[40] = system: SF-295
[41] = system: SF-539
[42] = system: SK-MEL-28
[43] = system: SK-MEL-2
[44] = system: SK-MEL-5
[45] = system: SK-OV-3
[46] = system: SN12C
[47] = system: SNB-19
[48] = system: SNB-75
[49] = system: SNB-78
[50] = system: SR
[51] = system: SW-620
[52] = system: TK-10
[53] = system: U-251
[54] = system: UACC-257
[55] = system: UACC-62
[56] = system: UO-31
[57] = system: XF498

COC1=C(Br)C(=O)c2nc(C)ccc2C1=O
GI50 [1]: 14.1 µM (inactive)
GI50 [2]: 22 µM (inactive)
GI50 [3]: 20.3 µM (inactive)
GI50 [4]: 10.7 µM (inactive)
GI50 [5]: 15.6 µM (inactive)
GI50 [6]: 0.871 µM (active)
GI50 [7]: 12.1 µM (inactive)
GI50 [8]: 5.33 µM (inactive)
GI50 [9]: 15 µM (inactive)
GI50 [10]: 17.2 µM (inactive)
GI50 [11]: 19.3 µM (inactive)
GI50 [12]: 18.1 µM (inactive)
GI50 [13]: 8.18 µM (inactive)
GI50 [14]: 14.1 µM
GI50 [15]: 0.993 µM (active)
GI50 [16]: 17.1 µM (inactive)
GI50 [17]: > 44.6 µM (inactive)
GI50 [18]: 7.18 µM (inactive)
GI50 [19]: 19.4 µM (inactive)
GI50 [20]: 19.6 µM (inactive)
GI50 [21]: 8.67 µM (inactive)
GI50 [22]: 19 µM (inactive)
GI50 [23]: 17.7 µM (inactive)
GI50 [24]: 8.39 µM (inactive)
GI50 [25]: 6.28 µM (inactive)
GI50 [26]: 15 µM (inactive)
GI50 [27]: 14.1 µM (inactive)
GI50 [28]: 2.4 µM (inactive)
GI50 [29]: 16.8 µM (inactive)
GI50 [30]: 22.8 µM (inactive)
GI50 [31]: 12.7 µM (inactive)
GI50 [32]: 15.8 µM (inactive)
GI50 [33]: 6.97 µM (inactive)
GI50 [34]: 7.46 µM (inactive)
GI50 [35]: 13.3 µM (inactive)
GI50 [36]: 20.4 µM (inactive)
GI50 [37]: 6.73 µM (inactive)
GI50 [38]: 11.2 µM (inactive)
GI50 [39]: 17.5 µM (inactive)
GI50 [40]: 20.4 µM (inactive)
GI50 [41]: 21.5 µM (inactive)
GI50 [42]: 18.4 µM (inactive)
GI50 [43]: 16.2 µM (inactive)
GI50 [44]: 18.1 µM (inactive)
GI50 [45]: 19.4 µM (inactive)
GI50 [46]: 15.7 µM (inactive)
GI50 [47]: > 40.9 µM (inactive)
GI50 [48]: 19.2 µM (inactive)
GI50 [49]: 18.7 µM (inactive)
GI50 [50]: 3.56 µM (inactive)
GI50 [51]: 8.15 µM (inactive)
GI50 [52]: 18.4 µM (inactive)
GI50 [53]: 15.1 µM (inactive)
GI50 [54]: 13.6 µM (inactive)
GI50 [55]: 19 µM (inactive)
GI50 [56]: 18.5 µM (inactive)

COc1ccc2c(c1)[n+]([O-])c(-c1ccc(Br)cc1)c(N)[n+]2[O-]
GI50 [1]: 78 µM (inactive)
GI50 [2]: > 100 µM (inactive)
GI50 [3]: 32.1 µM (inactive)
GI50 [4]: 47.8 µM (inactive)
GI50 [5]: 51.5 µM (inactive)
GI50 [6]: 50.4 µM (inactive)
GI50 [7]: 18.9 µM (inactive)
GI50 [8]: 44.6 µM (inactive)
GI50 [9]: 23.1 µM (inactive)
GI50 [10]: 24.1 µM (inactive)
GI50 [11]: 51.1 µM (inactive)
GI50 [13]: 30.6 µM (inactive)
GI50 [15]: 21.1 µM (inactive)
GI50 [16]: > 100 µM (inactive)
GI50 [17]: 88.3 µM (inactive)
GI50 [18]: > 100 µM (inactive)
GI50 [19]: 44.4 µM (inactive)
GI50 [20]: 43.8 µM (inactive)
GI50 [21]: 39.2 µM (inactive)
GI50 [22]: 34.5 µM (inactive)
GI50 [23]: 58.5 µM (inactive)
GI50 [27]: 44.3 µM (inactive)
GI50 [28]: 36.8 µM (inactive)
GI50 [29]: 25.2 µM (inactive)
GI50 [30]: 66.5 µM (inactive)
GI50 [31]: 22.4 µM (inactive)
GI50 [32]: 36.3 µM (inactive)
GI50 [33]: 15.6 µM (inactive)
GI50 [34]: 35.4 µM (inactive)
GI50 [35]: 35.6 µM (inactive)
GI50 [36]: 60 µM (inactive)
GI50 [37]: 37.2 µM (inactive)
GI50 [38]: 34.6 µM (inactive)
GI50 [39]: 39.4 µM (inactive)
GI50 [40]: 96.2 µM (inactive)
GI50 [41]: 36.1 µM (inactive)
GI50 [42]: 23.2 µM (inactive)
GI50 [43]: 32.4 µM (inactive)
GI50 [44]: 17.7 µM (inactive)
GI50 [45]: 92.7 µM (inactive)
GI50 [46]: 47 µM (inactive)
GI50 [47]: > 100 µM (inactive)
GI50 [48]: 63.1 µM (inactive)
GI50 [49]: 54.6 µM (inactive)
GI50 [50]: 36.6 µM (inactive)
GI50 [51]: 40.2 µM (inactive)
GI50 [53]: 37.4 µM (inactive)
GI50 [54]: 32.4 µM (inactive)
GI50 [56]: 80.2 µM (inactive)
GI50 [57]: 68.4 µM (inactive)
